Here are results for 14 molecules from patent US5441875A, “Urea transporter polypeptide” (Brigham and Women's Hospital, priority 1993, dated 1995).

Like-named read-outs stand apart in the source and are kept apart here.

The target of series [1] is T1, urea transporter polypeptide (Oryctolagus cuniculus, UniProt Q28614).
T1 sequence (Q28614 1-397): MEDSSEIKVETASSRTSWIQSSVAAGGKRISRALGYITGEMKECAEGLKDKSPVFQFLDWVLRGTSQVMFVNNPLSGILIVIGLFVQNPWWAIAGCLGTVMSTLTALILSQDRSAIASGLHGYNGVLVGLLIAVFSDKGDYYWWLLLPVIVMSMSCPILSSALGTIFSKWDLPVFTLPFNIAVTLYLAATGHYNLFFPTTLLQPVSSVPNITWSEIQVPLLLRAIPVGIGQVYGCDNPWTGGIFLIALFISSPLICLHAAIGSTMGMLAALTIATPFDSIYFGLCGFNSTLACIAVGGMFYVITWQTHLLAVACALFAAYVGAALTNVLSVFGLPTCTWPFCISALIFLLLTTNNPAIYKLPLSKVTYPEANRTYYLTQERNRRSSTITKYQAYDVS
Briefly: cell-based. The conditions noted are these: for effect on urea uptake of replacing mannitol in the incubation solution: 100 mM replacing mannitol; for effect of cAMP analogues on urea transporter-facilitated urea transport: 30 minute preincubation, 1 mM per analogue; for inhibition of urea transport by urea analogues: 150 mM analogue. As for the experimental part: (§1) The rabbit kidney medulla mRNA that is size fractionated by the preparative agarose gel electrophoresis was analyzed by oocyte expression assay. Large, fully grown oocytes (stage 5 and 6) with a diameter of 1.2-1.3 mm were hand dissected from ovarian fragments of Xenopus laevis, treated with 2 mg/ml type 1A collagenase to remove follicular cells and incubated in Barth's solution (in mM: 88 NaCl; 0.82 MgSO4; 0.33 Ca (NO3)2; 0.41 CaCl2; 2.4 NaHCO3; 10 HEPES, pH 7.4; 200 mosmol). After 16-24 hours, oocytes were injected with about 50 nl of mRNA or water and incubated in Barth's solution with gentamicin at about 18° C. for another three days after which uptake of ^14 C-urea was measured.
(§2) Unlabelled urea was deionized by passing it through an ion exchange column (AG501-X8 (D), 20-50 Mesh, Bio Rad) immediately before use. The uptake solution consisted of 2 microcuries ^14 C-urea; 1 mM urea; 200 mM mannitol; […]; 1 mM MgCl2; 1 mM CaCl2; 10 mM HEPES; and 5 mM TRIS, unless otherwise specified. In all uptake experiments oocytes were pre-incubated in uptake solution minus urea for one hour. After completion of the uptake, oocytes were washed with ice-cold wash solution (uptake solution without the labelled urea), dissolved in 10% SDS and used for scintillation counting.
Urea transport in the mammalian kidney is generally considered to be passive, although there is some evidence for active ion coupled transport. In studies addressing ion dependencies, urea uptake was measured in oocytes injected with urea transporter cRNA, as described above in Example 1. In the incubation solution, however, mannitol was replaced by NaCl (100 mM), choline chloride (100 mM) or sodium acetate (100 mM).
To study the uptake inhibition by phloretin, phloretin (Sigma) was dissolved in ethanol at 0.5M and added to the uptake solution to give the desired final concentration of 0.35 mM and 0.70 mM. The concentration of ethanol was no more than 0.1%. Ethanol at the same concentration is added to uptake solution without phloretin. Following 15 min pre-incubation in phloretin, ^14 C-urea was added and urea flux was then measured during 90 seconds.
For inhibition studies using urea analogues, all analogues were deionized as described in Example 1 immediately before use. […] Chou and Knepper, 257 Am. J. Physiol. F359-365 (1989).
It is possible that facilitation of urea transport by vasopressin is the result of direct phosphorylation of the transporter or of recruitment of functional transporters from intracellular vesicle pools.

In series [2] the test system is urea transport induced by rabbit kidney medulla poly(A)+ RNA. Nature of the series: 14C-urea uptake into Xenopus oocytes injected with poly(A)+ RNA from rabbit kidney medulla. It is filed as cell-based. The conditions noted are these: phloretin 0.25 mM, 14C-urea 50 mM. The method, then:
Messenger RNA, fractionated as above, was collected in 0.6 ml fractions. In preliminary experiments, uptake of ^14 C-labelled urea (50 mM) was measured three days after injection at 5, 30 and 60 minute intervals. […] Phloretin at 0.25 mM inhibited the 30 minute uptake of urea by approximately 50%.

Series [3] concerns urea transport in UT1 cRNA-injected oocytes. Briefly: 14C-urea uptake into Xenopus oocytes injected with UT1 cRNA. It is filed as cell-based, Xenopus laevis. The method, then:
as §1, §2

In series [4] the target is T1, urea transporter polypeptide. Nature of the series: Two-microelectrode voltage clamp on urea transporter cRNA-injected oocytes. It is filed as cell-based, rabbit. The settings on record: urea 1 and 100 mM; holding potential -60 mV. The method, then:
Electrophysiological studies are in agreement with this finding. Electrophysiological measurements were made on oocytes 3-4 days after injection with urea transporter cRNA-injected oocytes using conventional two-microelectrode voltage clamp methods (Axoclamp-2A, Axon Instruments). Membrane current was measured in a standard bath of 96 mM NaCl; 2 mM KCl; 1.8 mM CaCl2; 1.0 mM MgCl2; and 5 mM HEPES, pH 7.4, at a holding potential of -60 mV.

Series [5] deals with water-injected control oocytes. The settings on record: not told, 1000 µM. As for the experimental part: as §1, §2
Where [6] appears, read: read-out: inhibition of urea uptake.

For the molecule `CC(=O)O` [sodium acetate], the “effect on urea uptake of replacing mannitol in the incubation solution” value (“effect on urea uptake” for short) in series [1] is “no effect”.

As to `[Cl-].[Na+]` [NaCl], in series [1], the “effect on urea uptake” value is recorded as “did not alter urea uptake”.

In the case of `Nc1ncnc2c1ncn2C1OC2COP(O)(=S)OC2C1O` (stereo not shown) [Sp-cAMPS], the “effect of cAMP analogues on urea transporter-facilitated urea transport” value (“effect of cAMP analogues” below) in series [1] was “no effect”.

With `O=C(CCc1ccc(O)cc1)c1c(O)cc(O)cc1O` [phloretin], the “inhibition of the 30 minute uptake of urea” value in series [2] is given as “approximately 50%”. Also, the results for the inhibition at 350 µM in series [1] (setting [6]) and in series [1] (read-out: inhibition of urea uptake (phloretin-sensitivity of clone pool)) were 48% and about 50%, respectively. Moreover, the inhibition at 700 µM in series [1] (setting [6]) stood at 78%. Besides, the “phloretin sensitivity of UT1-induced urea transport” value in series [3] is “not phloretin-sensitive”.

Turning to `CC(N)=O` [acetamide], the “inhibition of urea transport by urea analogues” value (from here on “inhibition … by urea analogues”) in series [1] (14C-urea 1 mM) is given as “no significant effect”.

As for `Nc1ncnc2c1nc(Br)n2[C@@H]1O[C@@H]2COP(=O)(O)O[C@H]2[C@H]1O` [8-bromo-cAMP], the “effect of cAMP analogues” value in series [1] is reported as “no effect”.

In the case of `NC(N)=O` [urea], the “maximum uptake of 14C-urea” value in series [1] (14C-urea 1 mM, between 10 and 30 minutes) is reported as “approximately 250 pmoles/oocyte”. Moreover, the “saturation of urea transporter polypeptide-mediated urea transport” value in series [1] (concentration range between 1 and 200 mM urea) is given as “no saturation”. Also, the “urea permeability of urea transporter-injected oocytes” value in series [1] (not told, 1000 µM) turned out to be 45 ×10⁻⁶ cm/s. Further, the “membrane current evoked by bath applied urea” value in series [4] is “did not evoke a significant current”. Moreover, in series [5], the “permeability of water-injected control oocytes for urea” value was determined as 1.9 ×10⁻⁶ cm/s.

For the molecule `CNC(N)=O` [N-methylurea], the “inhibition … by urea analogues” value in series [1] (14C-urea 1 mM) was 38%.

For the molecule `CN(C)C(N)=O` [1,1-dimethylurea], the “inhibition … by urea analogues” value in series [1] (14C-urea 1 mM) is listed as “no significant effect”.

With `CNC(=O)NC` [1,3 dimethylurea, 1,3-dimethylurea], in series [1] (14C-urea 1 mM), the “inhibition … by urea analogues” value worked out at 65%.

In the case of `C[N+](C)(C)CCO.[Cl-]` [choline chloride], the “effect on urea uptake” value in series [1] is on record as “no effect”.

Turning to `CCCC(=O)Nc1ncnc2c1ncn2[C@@H]1O[C@@H]2COP(=O)(O)O[C@H]2[C@H]1OC(=O)CCC` [dibutyryl cyclic-AMP], in series [1], the “effect of cAMP analogues” value is listed as “no effect”.

`NC(N)=S` [Thiourea, thiourea]: the “inhibition … by urea analogues” value in series [1] (14C-urea 1 mM) came to 38%.

B1: urea transporter: 397-amino acid residue membrane glycoprotein from rabbit kidney medulla (SEQ ID NO.: 2), expressed from UT2 cRNA (protein)
chain: T1 sequence (Q28614 1-397)
modifications: glycosylated
In the case of B1, the “increase of the permeability of oocytes to urea” value in series [1] (versus water-injected control oocytes) is listed as 23 fold.

Usually inhibition stands for how much of the control response was suppressed.
